Measurements taken from patent US9023789B2, “Amylin analogs and pharmaceutical compositions thereof” (Novo Nordisk A/S, priority 2012, dated 2015).
pIC50: −log10 of the molar value. Numbered stars: 1 amine (or outer) side, 2 acyl side, 3 side chain; on linkers, the order of the positions; unused ones are H or OH. Bridge positions count the residues as written; N and C are the ends. Side chains are listed from the residue outwards. Peptide text beside a SMILES is read from it. * marks the point of attachment. C20 diacid = O=C(O)CCCCCCCCCCCCCCCCCCC(=O)*; γGlu = O=C(O)[C@H](CCC(=O)[*:2])N[*:1]; AEEA = NCCOCCOCC(=O)O

Assays:
[1] = ASSAY (III) ThT fibrillation assay for physical stability; assay type: physicochemical
Method in brief: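 Formulations with 1 μM ThT, pH adjusted as required, incubated at 37 °C with 960 rpm orbital shaking; fluorescence (ex 444/em 485 nm) read every 20 min. Fibrillation reported as mean ThT fluorescence ± SD of 4–8 replicates at time points; polypeptide concentration measured by reverse-phase HPLC before and after, post-centrifugation.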

[2] = molecular target: T1, rat amylin receptor (rat calcitonin receptor + rat RAMP 3) (Rattus norvegicus, UniProt P32214+Q9JJ73); assay: ASSAY (VI) binding to the rat amylin receptor; details: for pIC50: binding to rat amylin receptor, read-out: rAmylin-R bind IC50
T1 construct: expressed in transfected cells; host or cells: BHK tk'ts 13 (transient, FuGENE 6), membranes
T1 sequence (P32214 25-479 isoform P32214-2 limits assumed): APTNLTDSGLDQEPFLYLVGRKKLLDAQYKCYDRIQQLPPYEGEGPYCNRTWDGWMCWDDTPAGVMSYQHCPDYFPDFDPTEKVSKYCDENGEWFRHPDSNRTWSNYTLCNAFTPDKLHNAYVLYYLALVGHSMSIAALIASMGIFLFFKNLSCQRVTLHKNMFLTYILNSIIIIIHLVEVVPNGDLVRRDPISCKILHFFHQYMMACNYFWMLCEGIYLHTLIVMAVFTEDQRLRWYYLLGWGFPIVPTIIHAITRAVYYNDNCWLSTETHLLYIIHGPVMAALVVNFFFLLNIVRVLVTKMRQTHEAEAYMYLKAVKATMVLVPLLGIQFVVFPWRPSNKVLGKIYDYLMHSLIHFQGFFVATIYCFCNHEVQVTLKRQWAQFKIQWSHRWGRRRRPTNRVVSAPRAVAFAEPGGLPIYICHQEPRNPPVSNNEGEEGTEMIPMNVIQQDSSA
T1 sequence (Q9JJ73 23-147 partner): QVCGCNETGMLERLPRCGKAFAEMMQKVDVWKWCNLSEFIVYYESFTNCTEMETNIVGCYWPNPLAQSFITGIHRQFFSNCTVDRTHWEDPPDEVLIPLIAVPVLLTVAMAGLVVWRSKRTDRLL
Method in brief: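 Binding to the rat amylin receptor was determined with membrane preparations. The receptor was expressed by transiently transfecting BHK tk′ts 13 cells with rat calcitonin receptor, using FuGENE® 6 (Roche) according to the manufacturer's recommendations. Roughly 48 hours later the cells were harvested and their membranes isolated.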

[3] = Table 7, rat binding selectivity, rCTR IC50 / rAmylin-R IC50
[4] = Table 7a (preferred compounds), rat binding selectivity, rCTR IC50 / rAmylin-R IC50
[5] = ratio of rCTR bind IC50 to rAmylin-R bind IC50

Row | Compound | ThT pH 4.0 lag time (h) [1] [h] | pIC50 ([2]; Table 7) | Ratio rCT/rAmylin binding [2, 3] | Ratio rCT/rAmylin binding [2, 4] | Ratio rCT/rAmylin binding [2, 5]
1 | CC[C@H](C)[C@H](NC(=O)[C@H](C)NC(=O)CNC(=O)[C@H](Cc1ccccc1)NC(=O)[C@H](CC(N)=O)NC(=O)[C@@H]1CCCN1C(=O)[C@H](CO)NC(=O)[C@H](CO)NC(=O)[C@H](Cc1c[nH]cn1)NC(=O)[C@H](CCCNC(=N)N)NC(=O)[C@H](CC(C)C)NC(=O)[C@H](Cc1ccccc1)NC(=O)[C@H](Cc1c[nH]cn1)NC(=O)[C@H](C)NC(=O)[C@H](CC(C)C)NC(=O)[C@H](CCCNC(=N)N)NC(=O)[C@H](CCC(N)=O)NC(=O)[C@@H](NC(=O)[C@H](C)NC(=O)[C@@H]1CSSC[C@H](NC(=O)[C@@H](N)CCCCNC(=O)CC[C@H](NC(=O)CCCCCCCCCCCCCCCCCCC(=O)O)C(=O)O)C(=O)N[C@@H](CC(N)=O)C(=O)N[C@@H]([C@@H](C)O)C(=O)N[C@@H](C)C(=O)N[C@@H]([C@@H](C)O)C(=O)N1)[C@@H](C)O)C(=O)N1CCC[C@H]1C(=O)N[C@@H](CO)C(=O)N[C@@H](CO)C(=O)N[C@H](C(=O)N[C@@H](CC(N)=O)C(=O)N[C@H](C(=O)NCC(=O)N[C@@H](Cc1c[nH]cn1)C(=O)N[C@@H](CC(N)=O)C(=O)N[C@H](C(=O)N[C@@H](Cc1ccc(O)cc1)C(N)=O)[C@@H](C)O)C(C)C)[C@@H](C)O [Example 81] (H-K([γGlu-C20 diacid])CNTATCATQRLAHFLRHSSPNFGAIPSSTNVGHNTY-NH2; disulfide 2-7; N-terminus assumed) | 45 | 8.85 | 42.9 | 42.9 | 42.9
2 | CC[C@H](C)[C@H](NC(=O)[C@H](C)NC(=O)CNC(=O)[C@H](Cc1ccccc1)NC(=O)[C@H](CC(N)=O)NC(=O)[C@@H]1CCCN1C(=O)[C@H](CO)NC(=O)[C@H](CO)NC(=O)[C@H](Cc1c[nH]cn1)NC(=O)[C@H](CCCNC(=N)N)NC(=O)[C@H](CC(C)C)NC(=O)[C@H](Cc1ccccc1)NC(=O)[C@H](Cc1c[nH]cn1)NC(=O)[C@H](C)NC(=O)[C@H](CC(C)C)NC(=O)[C@H](CCCNC(=N)N)NC(=O)[C@H](CCC(N)=O)NC(=O)[C@@H](NC(=O)[C@H](C)NC(=O)[C@@H]1CSSC[C@H](NC(=O)[C@@H](N)CCCCNC(=O)COCCOCCNC(=O)CC[C@H](NC(=O)CCCCCCCCCCCCCCCCCCC(=O)O)C(=O)O)C(=O)N[C@@H](CC(N)=O)C(=O)N[C@@H]([C@@H](C)O)C(=O)N[C@@H](C)C(=O)N[C@@H]([C@@H](C)O)C(=O)N1)[C@@H](C)O)C(=O)N1CCC[C@H]1C(=O)N[C@@H](CO)C(=O)N[C@@H](CO)C(=O)N[C@H](C(=O)N[C@@H](CC(N)=O)C(=O)N[C@H](C(=O)NCC(=O)N[C@@H](CCCNC(=N)N)C(=O)N[C@@H](CC(N)=O)C(=O)N[C@H](C(=O)N[C@@H](Cc1ccc(O)cc1)C(N)=O)[C@@H](C)O)C(C)C)[C@@H](C)O [Example 84] (H-K([AEEA-γGlu-C20 diacid])CNTATCATQRLAHFLRHSSPNFGAIPSSTNVGRNTY-NH2; disulfide 2-7 (inferred); N-terminus assumed) | 45 | 8.30 | 94.3 | 94.3 | 94.3
3 | CC[C@H](C)[C@H](NC(=O)[C@H](C)NC(=O)CNC(=O)[C@H](Cc1ccccc1)NC(=O)[C@H](CC(N)=O)NC(=O)[C@@H]1CCCN1C(=O)[C@H](CO)NC(=O)[C@H](CO)NC(=O)[C@H](Cc1c[nH]cn1)NC(=O)[C@H](CCCNC(=N)N)NC(=O)[C@H](CC(C)C)NC(=O)[C@H](Cc1ccccc1)NC(=O)[C@H](Cc1c[nH]cn1)NC(=O)[C@H](C)NC(=O)[C@H](CC(C)C)NC(=O)[C@H](CCCNC(=N)N)NC(=O)[C@H](CCC(N)=O)NC(=O)[C@@H](NC(=O)[C@H](C)NC(=O)[C@@H]1CSSC[C@H](NC(=O)[C@@H](N)CCCCNC(=O)CC[C@H](NC(=O)CCCCCCCCCCCCCCCCCCC(=O)O)C(=O)O)C(=O)N[C@@H](CC(N)=O)C(=O)N[C@@H]([C@@H](C)O)C(=O)N[C@@H](C)C(=O)N[C@@H]([C@@H](C)O)C(=O)N1)[C@@H](C)O)C(=O)N1CCC[C@H]1C(=O)N[C@@H](CO)C(=O)N[C@@H](CO)C(=O)N[C@H](C(=O)N[C@@H](CC(N)=O)C(=O)N[C@H](C(=O)NCC(=O)N[C@@H](CCCNC(=N)N)C(=O)N[C@@H](CC(N)=O)C(=O)N[C@H](C(=O)N[C@@H](Cc1ccc(O)cc1)C(N)=O)[C@@H](C)O)C(C)C)[C@@H](C)O [Example 85] (H-K([γGlu-C20 diacid])CNTATCATQRLAHFLRHSSPNFGAIPSSTNVGRNTY-NH2; disulfide 2-7 (inferred); N-terminus assumed) | 45 | 8.50 | 46.5 | 46.5 | 46.5
4 | CC[C@H](C)[C@H](NC(=O)[C@H](C)NC(=O)CNC(=O)[C@H](Cc1ccccc1)NC(=O)[C@H](CC(N)=O)NC(=O)[C@@H]1CCCN1C(=O)[C@H](CO)NC(=O)[C@H](CO)NC(=O)[C@H](Cc1c[nH]cn1)NC(=O)[C@H](CCCNC(=N)N)NC(=O)[C@H](CC(C)C)NC(=O)[C@H](Cc1ccccc1)NC(=O)[C@H](CC(N)=O)NC(=O)[C@H](C)NC(=O)[C@H](CC(C)C)NC(=O)[C@H](CCCNC(=N)N)NC(=O)[C@H](CCC(N)=O)NC(=O)[C@@H](NC(=O)[C@H](C)NC(=O)[C@@H]1CSSC[C@H](NC(=O)[C@@H](N)CCCCNC(=O)CC[C@H](NC(=O)CC[C@H](NC(=O)CCCCCCCCCCCCCCCCCCC(=O)O)C(=O)O)C(=O)O)C(=O)N[C@@H](CC(N)=O)C(=O)N[C@@H]([C@@H](C)O)C(=O)N[C@@H](C)C(=O)N[C@@H]([C@@H](C)O)C(=O)N1)[C@@H](C)O)C(=O)N1CCC[C@H]1C(=O)N[C@@H](CO)C(=O)N[C@@H](CO)C(=O)N[C@H](C(=O)N[C@@H](CC(N)=O)C(=O)N[C@H](C(=O)NCC(=O)N[C@@H](Cc1c[nH]cn1)C(=O)N[C@@H](CC(N)=O)C(=O)N[C@H](C(=O)N[C@@H](Cc1ccc(O)cc1)C(N)=O)[C@@H](C)O)C(C)C)[C@@H](C)O [Example 86] (H-K([γGlu-γGlu-C20 diacid])CNTATCATQRLANFLRHSSPNFGAIPSSTNVGHNTY-NH2; disulfide 2-7) | 32 | 8.55 | 125.7 | 125.7 | 125.7
5 | CC[C@H](C)[C@H](NC(=O)[C@H](C)NC(=O)CNC(=O)[C@H](Cc1ccccc1)NC(=O)[C@H](CC(N)=O)NC(=O)[C@@H]1CCCN1C(=O)[C@H](CO)NC(=O)[C@H](CO)NC(=O)[C@H](Cc1c[nH]cn1)NC(=O)[C@H](CCCNC(=N)N)NC(=O)[C@H](CC(C)C)NC(=O)[C@H](Cc1ccccc1)NC(=O)[C@H](CCC(=O)O)NC(=O)[C@H](C)NC(=O)[C@H](CC(C)C)NC(=O)[C@H](CCCNC(=N)N)NC(=O)[C@H](CCC(N)=O)NC(=O)[C@@H](NC(=O)[C@H](C)NC(=O)[C@@H]1CSSC[C@H](NC(=O)[C@@H](N)CCCCNC(=O)CC[C@H](NC(=O)CC[C@H](NC(=O)CCCCCCCCCCCCCCCCCCC(=O)O)C(=O)O)C(=O)O)C(=O)N[C@@H](CC(N)=O)C(=O)N[C@@H]([C@@H](C)O)C(=O)N[C@@H](C)C(=O)N[C@@H]([C@@H](C)O)C(=O)N1)[C@@H](C)O)C(=O)N1CCC[C@H]1C(=O)N[C@@H](CO)C(=O)N[C@@H](CO)C(=O)N[C@H](C(=O)N[C@@H](CC(N)=O)C(=O)N[C@H](C(=O)NCC(=O)N[C@@H](Cc1c[nH]cn1)C(=O)N[C@@H](CC(N)=O)C(=O)N[C@H](C(=O)N[C@@H](Cc1ccc(O)cc1)C(N)=O)[C@@H](C)O)C(C)C)[C@@H](C)O [Example 87] (H-K([γGlu-γGlu-C20 diacid])CNTATCATQRLAEFLRHSSPNFGAIPSSTNVGHNTY-NH2; disulfide 2-7) | 45 | 8.68 | 45.6 | 45.6 | 45.6
